Measurements published in patent publication US9034871B2, “Compounds for Alzheimer's disease” (priority 2004, dated 2015).

Tested on: not given
Assay: not given
Settings: clinical trials in AD patients; cited from earlier work

In the case of `COc1ccc2cc([C@H](C)C(=O)O)ccc2c1` [Naproxen], the “efficacy for treating AD” value is listed as “failed to show efficacy”.
For `CS(=O)(=O)c1ccc(C2=C(c3ccccc3)C(=O)OC2)cc1` [rofecoxib], the “efficacy for treating AD” value is listed as “failed to show efficacy”.

Tested on: not given
Assay: not given
Settings: large prevention trial, patients having mild cognitive impairment; placebo 4.5%; cited from earlier work

For `CS(=O)(=O)c1ccc(C2=C(c3ccccc3)C(=O)OC2)cc1` [rofecoxib], the “patients who developed AD” value is listed as 6.4%.

Tested on: Aβ42
Assay: Detection of secreted Aβ42 with Biosource ELISA kit in H4 cells expressing APP695
Assay type: cell-based
Settings: Ab42 lowering, cell based assay; read-out: Ab42 IC50
Description: The present invention provides compositions and methods for lowering Aβ42 levels. To test whether compounds and compositions are capable of modulating Aβ levels, a sandwich enzyme-linked immunosorbent assay (ELISA) is employed to measure secreted Aβ (Aβ42 and/or Aβ40) levels. In this example, H4 cells expressing wide type APP695 are seeded at 200,000 cells/per well in 6 well plates, and incubated at 37 degree C. with 5% CO2 overnight. Cells are treated with 1.5 ml medium containing vehicle (DMSO) or a test compound at 1.25 μM, 2.5 μM, 5.0 μM and 10.0 μM (as well as other concentration if desirable) concentration for 24 hours or 48 hours. The supernatant from treated cells is collected into eppendorf tubes and frozen at −80 degree C. for future analysis.
The amyloid peptide standard is reconstituted and frozen samples are thawed. The samples and standards are diluted with appropriate diluents and the plate is washed 4 times with Working Wash Buffer and patted dry on a paper towel. 100 μL per well of peptide standards, controls, and dilutions of samples to be analyzed is added. The plate is incubated for 2 hours while shaking on an orbital plate shaker at RT. The plate is then washed 4 times with Working Wash Buffer and patted dry on a paper towel. Detection Antibody Solution is poured into a reservoir and 100 μL /well of Detection Antibody Solution is immediately added to the plate. The plate is incubated at RT for 2 hours while shaking and then washed four times with Working Wash Buffer and patted dry on a paper towel. Secondary Antibody Solution is then poured into a reservoir and 100 μL /well of Secondary Antibody Solution is immediately added to the plate. The plate is incubated at RT for 2 hours with shaking, washed 5 times with Working Wash Buffer, and patted dry on a paper towel.
100 μL of stabilized chromogen is added to each well and the liquid in the wells begins to turn blue. The plate is incubated for 30 minutes at room temperature and in the dark. 100 μL of stop solution is added to each well and the plate is tapped gently to mix resulting in a change of solution color from blue to yellow. The absorbance of each well is read at 450 nm having blanked the plate reader against a chromogen blank composed of 100 μL each of stabilized chromogen and stop solution. The plate is read within 2 hours of adding the stop solution. The absorbance of the standards is plotted against the standard concentration and the concentrations of unknown samples and controls are calculated.
These compounds were synthesized via the indicated synthetic route. Ab42 IC50 (uM) refers to IC50 value for Ab42 lowering in e.g., the assay described in Example 6.

First: O=C(O)c1ccc(-n2c(-c3cc4ccccc4o3)cc3c2CCC(C(F)(F)F)C3)o1 (centres unmarked) [5-(2-benzofuran-2-yl-5-trifluoromethyl-4,5,6,7-tetrahydroindol-1-yl)-furan-2-carboxylic acid]
Second: O=C(O)c1ccc(-n2c(-c3cc4ccccc4o3)cc3c2CC(C(F)(F)F)CC3)o1 (centres unmarked) [5-(2-benzofuran-2-yl-6-trifluoromethyl-4,5,6,7-tetrahydroindol-1-yl)-furan-2-carboxylic acid]
The IC50 of the first is 1.9-fold higher: 44 µM for the first, 23 µM for the second. The second is the more potent here.

Going from `O=C(O)c1cccc(-c2cc3c(n2-c2cccnc2)CCc2ccccc2-3)c1` [3-(3-pyridin-3-yl-4 5-dihydro-3H-benzo[e]indol-2-yl) benzoic acid] to `O=C(O)c1cccc(-n2c(-c3ccccn3)cc3c2CCc2ccccc2-3)c1` [3-(2-pyridin-2-yl-4,5-dihydrobenzo[e]indol-3-yl) benzoic acid], the IC50 falls from over 100 µM to 70 µM.

`O=C(O)c1ccc(-n2c(-c3ccccc3)cc3c4ccccc4ccc32)o1` [5-(2-phenylbenzo[e]indol-3-yl)furan-2-carboxylic acid] and `O=C(O)c1ccc(-n2c(-c3ccc(C(F)(F)F)cc3)cc3c4ccccc4ccc32)o1` [5-[2-(4-trifluoromethylphenyl)-benzo[e]indol-3-yl]-furan-2-carboxylic acid] are within 1.5-fold of each other in IC50: 22 µM for the first, 21 µM for the second.

`c1ccc(-c2cc(-c3cc4c(n3-c3cccc(-c5nn[nH]n5)c3)CCc3ccccc3-4)on2)cc1` [drawing 1708, 2-(3-phenylisoxazol-5-yl)-3-[3-(2H-tetrazol-5-yl)-phenyl]-4,5-dihydro-3H-benzo[e]indole] and `c1cc(-c2nn[nH]n2)cc(-n2c(-c3cc4ccccc4o3)cc3c2CCc2ccccc2-3)c1` [2-benzofuran-2-yl-3-[3-(2H-tetrazol-5-yl)-phenyl]-4,5-dihydro-3H-benzo[e]indole] are within 1.5-fold of each other in IC50: 9.6 µM for the first, 9.3 µM for the second.

Going from `Cc1onc(-c2ccccc2)c1-c1cc2c3ccccc3ccc2n1-c1cccc(C(=O)O)c1` [3-[2-(5-methyl-3-phenylisoxazol-4-yl)-benzo[e]indol-3-yl] benzoic acid] to `O=C(O)c1cccc(-n2c(-c3ccccn3)cc3c4ccccc4ccc32)c1` [3-(2-pyridin-2-yl-benzo[e]indol-3-yl) benzoic acid], the IC50 rises from 40 µM to 79 µM (2-fold).

`CC(C)(C)C1CCc2c(cc(-c3ccccc3)n2-c2ccc(C(=O)O)o2)C1` (centres unmarked) [5-(5-tertButyl-2-phenyl-4,5,6,7-tetrahydroindol-1-yl) furan-2-carboxylic acid] and `CCC(C)(C)C1CCc2c(cc(-c3ccccc3)n2-c2ccc(C(=O)O)o2)C1` (centres unmarked) [5-[5-(1,1-dimethylpropyl)-2-phenyl-4,5,6,7-tetrahydroindol-1-yl]-furan-2-carboxylic acid] are within 1.5-fold of each other in IC50: 3.7 µM for the first, 5.1 µM for the second.

Going from `O=C(O)CCCc1ccc(-n2c(-c3cc(-c4ccccc4)no3)cc3c4ccccc4ccc32)cc1` [4-{4-[2-(3-phenylisoxazol-5-yl)-benzo[e]indol-3-yl]-phenyl} butyric acid] to `O=C(O)c1cccc(-n2c(-c3ccncc3)cc3c4ccccc4ccc32)c1` [3-(2-pyridin-4-yl-benzo[e]indol-3-yl) benzoic acid], the IC50 rises from 4.5 µM to 81 µM (18-fold).

Compared with `O=C(O)c1ccc(-c2cc3c4ccccc4ccc3n2-c2ccoc2)cc1` [4-(3-furan-3-yl-3H-benzo[e]indol-2-yl) benzoic acid], `O=C(O)c1cccc(-n2c(-c3ccsc3)cc3c4ccccc4ccc32)c1` [3-(2-thiophen-3-yl-benzo[e]indol-3-yl) benzoic acid] is lower in IC50: over 100 µM for the first, 13.2 µM for the second. The second is the more potent here.

Compared with `c1ccc(-c2cc3c(n2-c2cccc(-c4nn[nH]n4)c2)CCc2ccccc2-3)nc1` [2-pyridin-2-yl-3-[3-(2H-tetrazol-5-yl)-phenyl]-4,5-dihydro-3H-benzo[e]indole], `c1cc(-c2nn[nH]n2)cc(-n2c(-c3ccncc3)cc3c2CCc2ccccc2-3)c1` [2-pyridin-4-yl-3-[3-(2H-tetrazol-5-yl)-phenyl]-4,5-dihydro-3H-benzo[e]indole] is 1.7-fold higher in IC50: 43 µM for the first, 73 µM for the second.

Going from `O=C(O)c1cccc(-n2nc(-c3ccccc3)cc2-c2ccccc2)c1` [3-(3,5-diphenyl-pyrazol-1-yl)-benzoic acid] to `O=C(O)c1cccc(-n2c(-c3ccccc3)cc3c2CC(c2ccccn2)CC3)c1` (centres unmarked) [3-(2-phenyl-6-pyridin-2-yl-4,5,6,7-tetrahydroindol-1-yl) benzoic acid], the IC50 falls from over 100 µM to 70.8 µM.

Going from `c1cc(-c2nn[nH]n2)cc(-n2c(-c3ccsc3)cc3c4ccccc4ccc32)c1` [3-[3-(2H-tetrazol-5-yl)-phenyl]-2-thiophen-3-yl-3H benzo[e]indole] to `O=C(O)c1cccc(-n2c(-c3ccc4c(c3)OCO4)cc3c4ccccc4ccc32)c1` [3-(2-benzo[1,3]dioxol-5-yl-benzo[e]indol-3-yl) benzoic acid], the IC50 falls from 31 µM to 20 µM (1.6-fold). The second is the more potent here.

`O=C(O)c1ccc(-n2c(-c3ccc(Cl)c(Cl)c3)cc3c2CCCC3C(F)(F)F)o1` (centres unmarked) [5-[2-(3,4-dichlorophenyl)-4-trifluoromethyl-4,5,6,7-tetrahydroindol-1-yl]-furan-2-carboxylic acid] and `O=C(O)c1ccc(-n2c(-c3ccc(Cl)c(Cl)c3)cc3c2CC(C(F)(F)F)CC3)o1` (centres unmarked) [5-[2-(3,4-dichlorophenyl)-6-trifluoromethyl-4,5,6,7-tetrahydroindol-1-yl]-furan-2-carboxylic acid] are within 1.5-fold of each other in IC50: 7.36 µM for the first, 8.9 µM for the second.

First: CC(C)(C)C1CCc2c(cc(-c3ccc(C(F)(F)F)cc3)n2-c2ccc(C(=O)O)o2)C1 (centres unmarked) [5-[5-tButyl-2-(4-trifluoromethylphenyl)-4,5,6,7-tetrahydroindol-1-yl] furan-2-carboxylic acid]
Second: O=C(O)c1ccc(-n2c(-c3ccc(N4CCOCC4)cc3)cc3c2CCC(C(F)(F)F)C3)o1 (centres unmarked) [5-[2-(4-morpholin-4-yl-phenyl)-5-trifluoromethyl-4,5,6,7-tetrahydroindol-1-yl]-furan-2-carboxylic acid]
The IC50 of the first is 4.9-fold lower: 14 µM for the first, 68 µM for the second. The first is the more potent here.

`COc1ccc(-c2cc3c(n2-c2nc(C(=O)O)cs2)CCC(C(F)(F)F)C3)cc1OC` (centres unmarked) [2-[2-(3,4-dimethoxyphenyl)-5-trifluoromethyl-4,5,6,7-tetrahydroindol-1-yl]-thiazole-4-carboxylic acid] and `COc1ccc(-c2cc3c(n2-c2nc(C(=O)O)cs2)CCC(C(F)(F)F)C3)c(OC)c1` (centres unmarked) [2-[2-(2,4-dimethoxyphenyl)-5-trifluoromethyl-4,5,6,7-tetrahydroindol-1-yl]-thiazole-4-carboxylic acid] cannot be ordered by IC50: over 100 µM for the first, over 100 µM for the second.

Work on `O=C(O)c1cccc(-n2c(-c3ccc4c(c3)OCO4)cc3c2CCc2ccccc2-3)c1` [3-(2-benzo[1,3]dioxol-5-yl-4,5-dihydrobenzo[e]indol-3-yl) benzoic acid] yielded an IC50 of 18 µM.

Same assay, conditions: IC50 value for Ab42 lowering in e.g. the assay described in Example 6; read-out: Ab42 IC50

`O=C(O)CCCc1ccc(-n2c(-c3ccccc3)cc3c2CCCC3)cc1` [Compound 86, 4-[4-(2-phenyl 4,5,6,7-tetrahydroindol-1-yl)-phenyl] butyric acid] and `c1ccc(-c2cc3c(n2-c2cccc(-c4nn[nH]n4)c2)CCc2ccccc2-3)cc1` [Compound 63, 2-phenyl-3-[3-(2H-tetrazol-5-yl)-phenyl]-4,5-dihydro-3H-benzo[e]indole] are within 1.5-fold of each other in IC50: 30 µM for the first, 24 µM for the second.

Same assay, conditions: cell based assay described in Example 6; read-out: Ab42 lowering IC50

With `c1ccc(-c2cc(-c3cc4c(n3-c3cccc(-c5nn[nH]n5)c3)CCc3ccccc3-4)on2)cc1` [Compound 138, 2-(3-phenylisoxazol-5-yl)-3-[3-(2H-tetrazol-5-yl)-phenyl]-4,5-dihydro-3H-benzo[e]indole] the IC50 was 10 µM.
